From patent US8318504B2, “MRP2 efflux pathway prognostic method” (priority 2009, dated 2012) come the findings set out here.

In this data set the target is T1, OATP1B1 (Homo sapiens, UniProt Q9Y6L6).
T1 construct: expressed in transfected cells; host or cells: CHO cells (stably transfected; Treiber et al. 2007)
T1 sequence (Q9Y6L6 1-691): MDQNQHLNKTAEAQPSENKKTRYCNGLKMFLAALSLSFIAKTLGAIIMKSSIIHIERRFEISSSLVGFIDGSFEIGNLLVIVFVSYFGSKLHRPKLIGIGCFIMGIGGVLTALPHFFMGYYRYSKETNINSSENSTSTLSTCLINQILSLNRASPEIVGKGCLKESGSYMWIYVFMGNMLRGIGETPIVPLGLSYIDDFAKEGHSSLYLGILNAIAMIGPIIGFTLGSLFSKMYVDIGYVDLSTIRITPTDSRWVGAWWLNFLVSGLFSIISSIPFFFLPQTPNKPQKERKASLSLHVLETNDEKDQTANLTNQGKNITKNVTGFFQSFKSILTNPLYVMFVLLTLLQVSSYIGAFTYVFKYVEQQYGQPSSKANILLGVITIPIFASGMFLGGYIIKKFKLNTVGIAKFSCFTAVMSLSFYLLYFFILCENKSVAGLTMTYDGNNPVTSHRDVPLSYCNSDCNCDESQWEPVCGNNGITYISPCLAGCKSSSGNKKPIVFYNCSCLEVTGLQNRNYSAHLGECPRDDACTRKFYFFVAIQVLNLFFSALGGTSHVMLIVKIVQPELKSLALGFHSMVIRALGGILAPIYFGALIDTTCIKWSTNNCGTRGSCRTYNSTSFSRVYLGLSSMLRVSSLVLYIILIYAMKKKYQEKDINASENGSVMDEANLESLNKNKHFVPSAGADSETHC
In words: Inhibition by CLF of estrone-3-sulfate transport in CHO cells expressing OATP1B1. In kind it is cell-based. The conditions noted are these: 0, 5 or 50 μmol/L CLF, 1 μmol/L estrone-3-sulfate. As to the method: FIGS. 3A-3D relate to inhibition of transport activity of hepatocellular uptake transporters by CLF. CHO cells expressing NTCP, OATP1B1, OATP1B3 and OATP2B1 were incubated with 0, 5 or 50 μmol/L CLF and with the substrates, 2.5 μmol/L TC, 1 μmol/L estrone-3-sulfate, 10 μmol/L TC and 1 μmol/L estrone-3-sulfate, respectively. Data represent means±SD of triplicate determinations.
For all transport experiments, cells grown on 3 cm culture dishes were cultured for 24 hours in media supplemented with 5 mmol/L sodium-butyrate to increase expression levels of transfected transporters [Palermo D P et al., J Biotechnol 1991 June; 19(1):35-47]. • Transport experiments with uptake of radioactively labeled substrates: These experiments were performed as described by Huber R D et al. [Am J Physiol Cell Physiol 2007 February; 292(2):C795-C806]. • Transport experiments with uptake of CLF: Uptake was performed in the same buffers as for the radioactive substrates above. […] After complete solubilization, 1.5 ml was used to measure fluorescence in a Perkin-Elmer LS-5 luminescence-spectrometer set at λexe 486 nm (slit 10 nm) and λem 520 nm (slit 5 nm). Protein was determined with the bicinchoninic acid method using a kit from Interchim (Montfuçon, France). […]

On to `CC(CCC(=O)NC(CCCCNC(=S)Nc1ccc(-c2c3ccc(=O)cc-3oc3cc(O)ccc23)c(C(=O)O)c1)C(=O)O)C1CCC2C3C(O)CC4CC(O)CCC4(C)C3CC(O)C12C` (stereo not shown) [CLF, cholyl lysyl fluorescein], for which the “inhibition of transport of estrone-3-sulfate mediated by OATP1B1 by CLF” value is “much less efficiently”.
